Measurements reported in US11180495B2 (Abbisko Therapeutics Co., Ltd., priority 2017, dated 2021).
pIC50: −log10 of the molar value.

How the values were obtained:
KIT = KIT (Homo sapiens, UniProt P10721); test: KIT in vitro biochemical kinase study (Caliper EZ Reader); details: FAM-labeled polypeptide, Caliper EZ Reader II; read-out: Enzymatic experiment KIT IC50
Experimental: (§1) In the present invention, the inhibitory activity of compounds against the CSF-1R activity was determined by using CSF-1R ADP-Glo assay. The compound-mediated inhibition effect was achieved by inhibiting the production of ADP from consumption of ATP, and the activities of compounds were evaluated by using the ADP-Glo kit (Promega, cat. No. V9101). The specific experimental process was as follows: • 1. The kinase reaction performed in the present invention was carried out in a 384-well plate (Perkinelmer, cat. No. 6007290), and 3.95 nM of CSF-1R, 500 μM of ATP and 0.2 mg/mL of polypeptide (Poly (Glu4, Try1), Sigma, cat. No. P0275) were respectively weighed and added to each well: • 2. following reagents were then added to each well to reach the final reaction system: 40 mM Tris, pH 7.5, 20 mM MgCl2, 0.01% Triton X-100, 0.1 mg/mL BSA, 2.5 mM DTT and 0.1% DMSO; • 3. the reaction was conducted at 30° C. for 60 min; • 4. then an equal volume of stop solution (ADP-Glo) was added to the kinase reaction system; • 5. the mixed solution was incubated at 25° C. for 60 min, and the kinase reaction was then terminated; • 6. a two-fold volume of detection reagent was then added to each well; • 7. the mixed solution was incubated at 25° C. for 30 min; • 8. the compound IC50 value was measured by using a plate reader (Tecan, M1000) and a four-parameter curve was generated in Graphpad Prism. B. KIT/PDGFRA In Vitro Biochemical Kinase Study • 1. Preparation of 1-fold kinase buffer and stop solution • 1.1 1-fold kinase buffer: 50 mM HEPES, pH 7.5, 0.0015% Brij-35. • 1.2 stop solution: 100 mM HEPES, pH 7.5, 0.015% Brij-35, 0.2% Coating Reagent #3 50 mM EDTA • 2. Preparation of compound solution • 2.1 Dilution of compound solution • 1) The final concentration of the compound solution was 40 μM. and the concentration of the prepared stock solution was 50 times of the final concentration, i.e., 2 mM. • 2) 80 μL of 100% DMSO was added to the second well of the 96-well plate, then 20 μL of 10 mM compound solution was added, and thereby 2 mM compound solution was prepared, 60 μL of 100% DMSO was added to other wells, 20 μL of compound was taken from the second well, added to the third well and diluted by 4 times. […]

PDGFRA = PDGFRA (Homo sapiens, UniProt P16234); test: PDGFRA in vitro biochemical kinase study (Caliper EZ Reader); details: FAM-labeled polypeptide, Caliper EZ Reader II; read-out: Enzymatic experiment PDGFRA IC50
Experimental: as §1

Chain of PDGFRA (P16234 24-1089): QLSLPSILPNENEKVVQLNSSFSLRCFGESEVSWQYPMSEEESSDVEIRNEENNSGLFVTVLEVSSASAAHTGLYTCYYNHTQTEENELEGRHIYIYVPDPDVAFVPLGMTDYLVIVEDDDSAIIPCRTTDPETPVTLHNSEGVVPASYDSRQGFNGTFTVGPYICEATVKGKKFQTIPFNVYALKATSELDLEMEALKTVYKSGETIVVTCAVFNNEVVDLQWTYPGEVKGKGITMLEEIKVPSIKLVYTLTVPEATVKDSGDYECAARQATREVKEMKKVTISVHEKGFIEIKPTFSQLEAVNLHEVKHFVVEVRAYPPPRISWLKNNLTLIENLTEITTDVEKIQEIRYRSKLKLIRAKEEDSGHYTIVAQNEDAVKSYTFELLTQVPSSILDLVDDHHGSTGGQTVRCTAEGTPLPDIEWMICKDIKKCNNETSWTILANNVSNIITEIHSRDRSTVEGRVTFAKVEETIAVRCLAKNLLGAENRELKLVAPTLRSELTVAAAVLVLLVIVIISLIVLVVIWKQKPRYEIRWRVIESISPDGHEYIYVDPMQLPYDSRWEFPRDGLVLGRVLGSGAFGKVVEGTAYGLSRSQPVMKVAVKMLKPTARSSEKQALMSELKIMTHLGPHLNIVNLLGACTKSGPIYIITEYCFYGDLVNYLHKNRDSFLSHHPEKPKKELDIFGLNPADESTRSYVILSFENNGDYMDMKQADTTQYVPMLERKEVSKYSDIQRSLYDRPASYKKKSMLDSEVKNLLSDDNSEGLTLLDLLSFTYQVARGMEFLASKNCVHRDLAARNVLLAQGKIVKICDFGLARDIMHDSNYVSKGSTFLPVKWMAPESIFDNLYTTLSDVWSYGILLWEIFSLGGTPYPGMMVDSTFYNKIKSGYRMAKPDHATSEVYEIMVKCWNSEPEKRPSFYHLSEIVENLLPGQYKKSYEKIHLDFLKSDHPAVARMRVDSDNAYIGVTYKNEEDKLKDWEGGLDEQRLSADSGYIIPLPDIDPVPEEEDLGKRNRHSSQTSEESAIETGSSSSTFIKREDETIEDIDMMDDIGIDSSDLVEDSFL
Chain of KIT (P10721 26-976): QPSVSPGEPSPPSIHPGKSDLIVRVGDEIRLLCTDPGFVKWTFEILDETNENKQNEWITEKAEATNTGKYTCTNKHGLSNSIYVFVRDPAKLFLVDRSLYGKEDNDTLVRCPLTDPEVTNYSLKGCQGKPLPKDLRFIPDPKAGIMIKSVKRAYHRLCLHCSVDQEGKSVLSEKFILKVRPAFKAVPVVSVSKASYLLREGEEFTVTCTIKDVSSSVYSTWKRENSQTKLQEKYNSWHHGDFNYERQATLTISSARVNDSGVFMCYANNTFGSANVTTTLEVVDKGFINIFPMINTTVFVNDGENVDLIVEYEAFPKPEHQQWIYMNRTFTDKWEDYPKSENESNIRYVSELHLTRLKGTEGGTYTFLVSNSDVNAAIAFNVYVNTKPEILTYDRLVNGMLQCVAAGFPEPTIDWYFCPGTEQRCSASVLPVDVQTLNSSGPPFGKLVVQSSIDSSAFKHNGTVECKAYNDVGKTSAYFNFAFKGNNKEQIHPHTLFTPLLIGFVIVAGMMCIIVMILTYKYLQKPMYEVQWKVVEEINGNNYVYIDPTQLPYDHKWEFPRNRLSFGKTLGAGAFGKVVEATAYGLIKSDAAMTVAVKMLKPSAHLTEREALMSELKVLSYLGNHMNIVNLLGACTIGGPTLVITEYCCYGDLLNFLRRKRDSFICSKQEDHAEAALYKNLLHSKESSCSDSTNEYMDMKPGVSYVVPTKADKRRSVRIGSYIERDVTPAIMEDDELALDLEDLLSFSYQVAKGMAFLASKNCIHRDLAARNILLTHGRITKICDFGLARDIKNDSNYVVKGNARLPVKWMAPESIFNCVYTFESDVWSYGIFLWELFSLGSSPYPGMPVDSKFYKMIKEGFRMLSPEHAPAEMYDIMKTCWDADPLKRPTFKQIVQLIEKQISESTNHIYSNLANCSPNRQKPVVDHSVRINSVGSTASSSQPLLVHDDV

| Structure (SMILES) | pIC50 (KIT) | pIC50 (PDGFRA) |
| --- | --- | --- |
| Cc1nc(-c2cnc(NC(C)C)[nH]c2=O)ccc1Cc1c[nH]c2ncc(F)cc12 [Example 5, 5-(5-((5-fluoro-1H-pyrrolo[2,3-b]pyridin-3-yl)methyl)-6-methylpyridin-2-yl)-2-(isopropylamino)pyrimidin-4(3H)-one] | 6.65 | 5.03 |
| Cc1nc(-c2cnc(NC(C)C)n(C)c2=O)ccc1Cc1c[nH]c2ncccc12 [Example 7, 5-(5-((1H-pyrrolo[2,3-b]pyridin-3-yl)methyl)-6-methylpyridin-2-yl)-2-(isopropylamino)-3-methylpyrimidin-4(3H)-one] | 7.29 | 6.00 |
